According to patent US10232013B2, “Use of an antimicrobial peptide TP4 in treating a cancer” (Academia Sinica, priority 2016, dated 2019):
Structures can show the parent of a compound that is named as a salt.

Assays:
Assay type in all cases: cell-based, human
FOSB in MB231 cells = experiment: FOSB induction, Western blot/immunocytochemistry, MB231; conditions: for effect of inhibitor on TP4-induced FOSB induction: TNBC cells, pre-treatment prior to TP4, Western blot
Experimental: (§1) Nuclear extracts were prepared as previously described^23. Equal amounts of nuclear extract (200 μg) were used for immunoprecipitation (IP) using Dynabeads protein G (ThermoFisher Scientific), in accordance with the recommended protocol. cJUN antibody (ThermoFisher Scientific, clone C.238.2) was used for immunoprecipitation. Total cell extract preparation and Western blot were performed as previously described^23. Equal amounts of boiled lysate (20 μg of total cell extract) were separated on acrylamide gels, and then transferred to PVDF membranes. The membranes were incubated in blocking solution (0.1 M PBS, 5% non-fat milk, 0.2% Tween-20) for 1 h at room temperature (RT), and then incubated in the same solution with primary or secondary antibodies (GE Healthcare Life Science). […] Membranes were visualized with enhanced chemiluminescence (Immobilon Western Chemiluminescent HRP substrate, Merck Millipore) and detected by an imaging system (UVP, BioSpectrum™ 500). Signal intensities were determined by densitometric analysis (AlphaInnotech) using the AlphaImager program. The results were expressed as relative densitometric units (RDU) (the densitometric units of FOSB+FOSΔB divided by those of GAPDH).
The plasma membrane and mitochondria were stained by pre-incubating biotinylated-TP4 treated cells (14 μg mL^−1, 3 h) with Alexa Flour 647 dye-conjugated wheat germ agglutinin (WGA) (5 μg mL^−1) (ThermoFisher Scientific) for 10 min at 37° C. or with MitoTracker® Red CMXRos probe (200 nM) (ThermoFisher Scientific) for 45 min at 37° C. prior to cell fixation. […] The fluorescent signal (which is proportional to functional mitochondria) was quantitatively determined using Image J software. […] The fluorescent FOSB signal was quantitatively determined using Image J software. […]

MB231 (MDA-MB231) cells = experiment: MTS cell viability assay, MB231; conditions: MB231, inhibitor added 30 min prior to TP4, cell viability
Experimental: Cell-lines used in this study were purchased from the Bioresource Collection and Research Center (BCRC) in and the cells were cultured by the standard cell culture procedures and conditions provided by the BCRC. MB231 (BCRC 60425), MB453 (BCRC 60429), and HDF cells were cultured as previously described by Ting et al. MCF7 […] cells were maintained in α-MEM medium (ThermoFisher Scientific) supplemented with 2 mM L-glutamine, 10% FBS, 0.1 mM non-essential amino acids, 1 mM sodium pyruvate, and antibiotics (100 U mL^−1 penicillin G and […] streptomycin). M10 (BCRC 60197) cells were maintained in α-MEM medium (ThermoFisher Scientific) supplemented with 10% FBS and antibiotics. With the exception of MB231 and MB453, all cells were cultured at 37° C. with 5% CO2. For the cell viability and transfection assay, 1×10^4 cells [5×10^3 M10 cells were seeded and cultured for 48 h to allow the cells sufficient time for attachment] were seeded into the wells of a 96-well plate and cultured overnight. For the transfection assays, cells were transfected with 0.1-0.4 μg FOSB/FOSAB expression plasmid (Origene Technology Inc.) and cell viability was determined after 72 h. The transfection efficiencies (number of cells expressing eGFP/all cells) of the MB231 transfection assays were determined by observing ten randomly selected fields (from three independent transfections) of control GFP plasmid transfections under an inverted microscope (Olympus, IX71) coupled to a digital camera (Olympus DP80), using an […] (LCPlanFI 20×/0.40 Ph1). CellSens standard software (Olympus) was used for image acquisition. During the drug treatment assay, inhibitors (PD98059, BAPTA-AM, and AlP II) were added 30 min prior to TP4, and cell viability was determined at indicated time-points. Transfection was performed using LipofectAMINE™ 3000 (ThermoFisher Scientific), according to the manufacturer's recommendations. Knock-down cells were generated by transducing MB231 cells with pre-synthesized FOSB (or control) shRNA lentiviral particles (Santa Cruz Biotechnology), and selecting puromycin-resistant cells in accordance with the manufacturer's standard protocol. MB231 or M10 cells stably expressing eGFP or mOrange2 were generated through transfection with peGFP-puromycin or pmOrange2-C1 plasmid, followed by puromycin (5 μg mL^−1) or G418 (500 μg mL^−1) selection as described above.
Cell viability was quantitatively analyzed using the CellTiter-Glo® Luminescent Cell Viability Assay kit (ATP assay) and CellTiter 96® AQueous Non-Radioactive Cell Proliferation Assay kit (MTS assay) (Promega) in accordance with the manufacturer's protocol. For MTS assay, 1×10^4 cells were seeded into the wells of a 96-well plate and cultured overnight [5×10^3 M10 cells were seeded and cultured for 48 h to enable sufficient well attachment]. Cells were subsequently treated with different doses of TP4 (2.5-20 μg mL^−1) and harvested at the indicated time-points (3-24 h). Reaction mixtures (20 μL: MTS+PMS, using a ratio 20:1) were directly added to the cells, and the plates were incubated for 3 h at 37° C. Absorbance at 490 nm is directly proportional to the number of living cells in culture and was measured using a photometer (SpectraMax® i3, Molecular Devices). ATP assay was performed as previously described by Ting et al. Lactate dehydrogenase (LDH) assays were performed by quantitatively measuring cell lysis with a Cytotoxicity Detection Kit^PLUS (LDH) (Roche) in accordance with the manufacturer's protocol. The LDH standard was purchased from Cayman Chemical. Briefly, 1×10^4 cells were seeded into the wells of a 96-well plate and cultured overnight. Culture media were replaced with fresh medium containing 1% FBS and cells were subsequently treated with different doses of TP4 (2.5-20 μg mL^−1). Supernatants were harvested at 3 h. […]

FOSB in MCF7 cells = experiment: FOSB induction, Western blot/immunocytochemistry, MCF7; conditions: Western blot
Experimental: as §1, with “GAPDH). […]” for “GAPDH).”

FOSB in MB453 cells = experiment: FOSB induction, Western blot/immunocytochemistry, MB453; conditions: Western blot
Experimental: as §1, with “GAPDH). […]” for “GAPDH).”

Row | Compound | effect of inhibitor on TP4-induced FOSB induction (FOSB in MB231 cells) | effect of inhibitor on TP4-induced TNBC cell death (MB231 (MDA-MB231) cells) | FOSB induction (FOSB in MCF7 cells) | FOSB induction (FOSB in MB453 cells) | also measured
1 | CC(=O)OCOC(=O)CN(CC(=O)OCOC(C)=O)c1ccccc1OCCOc1ccccc1N(CC(=O)OCOC(C)=O)CC(=O)OCOC(C)=O [BAPTA/AM, 1,2-Bis(2-aminophenoxy)ethane-N,N,N,N-tetraacetic acid tetrakis(acetoxymethyl ester), reference compound] | disrupted | disrupted |  |  | 
2 | COc1cccc(-c2cc(=O)c3ccccc3o2)c1N [PD98059, reference compound] |  | disrupted |  |  | 
3 | CC(=O)O[C@@]12CO[C@@H]1C[C@H](O)[C@@]1(C)C(=O)[C@H](O)C3=C(C)[C@@H](OC(=O)[C@H](O)[C@@H](NC(=O)OC(C)(C)C)c4ccccc4)C[C@@](O)([C@@H](OC(=O)c4ccccc4)[C@H]21)C3(C)C [docetaxel, Docetaxel] |  |  | induced FOSB | induced FOSB | 
4 | COc1cccc2c1C(=O)c1c(O)c3c(c(O)c1C2=O)C[C@@](O)(C(=O)CO)C[C@@H]3O[C@H]1C[C@H](N)[C@H](O)[C@H](C)O1 [doxorubicin, Doxorubicin hydrochloride] |  |  |  |  | FOSB induction (FOSB in MB231 cells; MB231 (TNBC) cells, Western blot): induced strong FOSB expression
5 | CC(=O)O[C@H]1C(=O)[C@@]2(C)[C@H]([C@H](OC(=O)c3ccccc3)[C@]3(O)C[C@H](OC(=O)[C@H](O)[C@@H](NC(=O)c4ccccc4)c4ccccc4)C(C)=C1C3(C)C)[C@]1(OC(C)=O)CO[C@@H]1C[C@@H]2O [paclitaxel, Paclitaxel] |  |  | induced FOSB | induced FOSB | 
6 | Autocamtide-2 related inhibitory peptide II [AIP2, reference compound] | trend towards decrease, but not complete block | partly prevented |  |  | 
